# Measurements reported in patent publication US10564168B2, “Method for treating male infertility based on NOX5 protein levels in sperm” (priority 2013, dated 2020).
# Assays:
# human spermatozoa [1] = test: Superoxide assay, luminol-based Diogenes chemiluminescence, whole spermatozoa; type: cell-based
# Text: (§1) Human semen samples were obtained from patient donors as a part of their clinical evaluation for fertility and reproductive health status. Portions of the samples not required for clinical analyses were de-identified and made available for the research protocols described. Under these conditions, the Institutional Review Board determined that the study is exempt from requirements for protocol approval and informed consent. Semen was collected by masturbation into sterile plastic containers and allowed to liquefy for at least 30 min before being processed. The samples were centrifuged (500 g, 15 min) to separate the seminal plasma from spermatozoa, and the pellet washed twice in phosphate-buffered normal saline pH 7 with 10 mM glucose (PBS-G). The spermatozoa were then counted in a hemocytometer chamber, resuspended in PBS-G at 10^9/ml, and used for superoxide assays. Sperm samples containing leukocytes detected by microscopic examination were excluded from the study. For selected experiments, motile spermatozoa were collected using the swim-up procedure (Vijayakumar et al. (1986) Arch. Androl. 17, 223-230; Parrish and Foote (1987) J. Androl. 8, 259-266). Briefly, the spermatozoa were sedimented by centrifugation (500 g, 15 min) and the tube was then incubated upright for 60 min at 37° C. Motile spermatozoa that progressed from the pellet into the supernatant (swim-up fraction) were collected by aspiration and counted.
# (§2) Superoxide generation was measured using a luminol-based chemiluminescence assay (Diogenes reagent, National Diagnostics, Atlanta, Ga.). […] Spermatozoa were suspended at 10^9/ml in PBS-G. A 100 μl aliquot of the Diogenes reagent was mixed with 2×10^7 spermatozoa and incubated at 37° C. for 2-4 minutes. Superoxide generation was measured at baseline and after stimulation with ionomycin (1 μM), phorbol myristate acetate (PMA, 1 μg/ml), or H2O2 (100 μM and other concentrations as indicated). Chemiluminescence was measured every 30-60 sec for up to 10-15 min using a Clarity™ BioTek luminometer and an integration time of 5 sec.
# Spermatozoa were pre-incubated for 5 min prior to the superoxide assay with 400 U/ml superoxide dismutase (SOD), 10 μM diphenylene iodonium (DPI), or 100 μM 1,2-Bis (2-aminophenoxy) ethane-N,N,N′,N′-tetraacetic acid (BAPTA). […] In some experiments, cells were pre-exposed to the NOX inhibitor 2-(2-chlorophenyl)-4-methyl-5-(pyridin-2-ylmethyl)-1H-pyrazolo[4,3-c]pyridine-3,6(2H,5H)-dione (GKT136901, 0.5 μM and other concentrations as indicated) for 10 min before exposure to either H2O2 or PMA.
# human spermatozoa [2] = test: Swim-up procedure, sperm motility; type: cell-based; conditions: 100 μM H2O2, 10 min
# Text: as §1
# human spermatozoa [3] = test: Live cell confocal imaging with fluo4-AM and DHE; type: cell-based; conditions: H2O2, 10 min
# Experimental: Spermatozoa suspended in PBS-G were plated on poly-L-lysine-coated glass coverslips (2×10^5 cells/ml) in PBS-G and loaded with 6 μM fluo4-AM and 300 nM dihydroethidine (DHE) (Molecular Probes, Carlsbad, Calif.) 10 min before imaging. Ca2+ influx and superoxide production were recorded using a confocal microscope (LSM 510; Carl Zeiss MicroImaging, Inc., Thornwood, N.Y.) with a 63×/1.4 NA plan-apochromat objective. Fluo-4 and DHE fluorescence emissions were excited with dual laser at 488/543 nm attenuated to avoid photobleaching and saturation. Detection was through a 545 nm long-pass dichroic mirror and a band-pass filter at 500-530 for fluo-4 and LP560 for DHE.
# c-Abl = test: Phospho-c-Abl immunoblot and immunostaining of spermatozoa; type: cell-based, human; conditions: 100 μM H2O2, 10 min
# Experimental: Spermatozoa resuspended in lysis buffer A (20 mM HEPES, pH 7.9; 350 mM NaCl; 0.5 mM EDTA; 0.5 mM EGTA; 1 mM MgCl2; 10% glycerol (v/v); 1% Nonidet P-40 (v/v); 10 mM NaF; 0.1 mM Na3VO4 [orthovanadate], 8 mM β-glycerophosphate; phosphatase inhibitor cocktail I and II [Sigma]; and protease inhibitor cocktail [Roche, Mannheim, Germany]) were sonicated 3 times for 5 sec each (20 watts). Lysates were cleared by centrifugation (10,000 g, 15 min). Aliquots containing 60-200 μg of protein were separated on 4-20% SDS polyacrylamide gradient gels and transferred to polyvinylidene difluoride (PVDF) membranes. […]
# For immunohistological analyses, a drop of spermatozoa suspended in PBS-G was placed on a poly-L-lysine-coated glass slide, fixed in 4% (w/v) paraformaldehyde and permeabilized with 0.1% Triton X-100 (v/v) for 15 min at 4° C. […] Protein expression was visualized on a fluorescence microscope (Zeiss, Thornwood, N.Y.). […]
# K562/NOX5 cells = test: Superoxide production by K562/NOX5 cells; type: cell-based, human; conditions: 1 mM ZnCl2, K562/NOX5 cells
# Experimental: as §2
# Human leukemia cells stably transfected with an empty vector (K562 cells) or a vector encoding for NOX5 (K562/NOX5) were grown in RPMI medium supplemented with 10% (v/v) fetal bovine serum, plus 100 U/ml penicillin and 100 μg/ml streptomycin and the appropriate selection antibiotic. Cells in the logarithmic phase of growth were transfected with a mix of HV1 siRNA (Sigma) or with scrambled siRNA (Sigma) using the Neon system (Invitrogen, Carlsbad, Calif.) according to the manufacturer's recommendations. […]
Compound,dose dependence of induction of superoxide generation (human spermatozoa [1]; 1 to 500 μM H2O2),H2O2-stimulated superoxide production by hypermotile spermatozoa of the upper fraction after spontaneous swim-up (human spermatozoa [1]; compared with pre-swim-up cells),onset of superoxide burst after peroxide addition (human spermatozoa [1]; human spermatozoa) [min],"time to maximal superoxide activity levels (human spermatozoa [1]; human spermatozoa, varying among donors) [min]","induction of superoxide production by spermatozoa (human spermatozoa [1]; ionomycin 1 μM, PMA 1 μg/ml or H2O2 100 μM, 10 min)",effect on number of sperm in the swim-up fraction (human spermatozoa [2]),cytosolic Ca2+ levels and superoxide fluorescence (human spermatozoa [3]),phosphorylation of c-Abl (c-Abl),"sensitivity of superoxide production induced by H2O2, PMA, or ionomycin (human spermatozoa [1]; 1 mM ZnCl2, 5 min pre-incubation, human spermatozoa)","decrease of superoxide production stimulated by ionomycin, PMA, or H2O2 (K562/NOX5 cells)"
OO [H2O2],dose-dependent,did not produce superoxide,1 to 2,5 to 10,induced a marked burst in superoxide production,increase in the number of sperm in the swim-up fraction,increases in cytosolic Ca2+ levels,induced the phosphorylation of c-Abl on tyrosine 245,,
[Cl-].[Cl-].[Zn+2] [ZnCl2],,,,,,,,,Zn2+-sensitive,50-70%
